Tested on: 616215-338-R-J1-PDC complex spheroid viability
Assay: Anticancer human tumor 616215-338-R-J1-PDC patient-derived colon adenocarcinoma cell line growth inhibition [POLQ]
Conditions: for IC50: curve of first compound; for viability, T/C: stronger effect = lower value
How it was run: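 Patient-derived tumour cells were co-cultured with HUVEC and mesenchymal stem cells as multicellular spheroids at 37 °C. They were treated with POLQ inhibitors (novobiocin, ART-558, RP6685) alone or combined with other agents. Top concentrations were at or near clinical Cmax (otherwise 10 microM; SN-38 at 1 microM), decreasing in half-log steps.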

[1] = second compound 0.0316 µM, first compound 0.0316 µM
[2] = second compound 0.0316 µM, first compound 0.1 µM
[3] = second compound 0.0316 µM, first compound 0.316 µM
[4] = second compound 0.0316 µM, first compound 1 µM
[5] = second compound 0.0316 µM, first compound 3.16 µM
[6] = second compound 0.0316 µM, first compound 10 µM
[7] = second compound 0.1 µM, first compound 0.0316 µM
[8] = second compound 0.1 µM, first compound 0.1 µM
[9] = second compound 0.1 µM, first compound 0.316 µM
[10] = second compound 0.1 µM, first compound 1 µM
[11] = second compound 0.1 µM, first compound 3.16 µM
[12] = second compound 0.1 µM, first compound 10 µM
[13] = second compound 0.316 µM, first compound 0.0316 µM
[14] = second compound 0.316 µM, first compound 0.1 µM
[15] = second compound 0.316 µM, first compound 0.316 µM
[16] = second compound 0.316 µM, first compound 1 µM
[17] = second compound 0.316 µM, first compound 3.16 µM
[18] = second compound 0.316 µM, first compound 10 µM
[19] = second compound 1 µM, first compound 0.0316 µM
[20] = second compound 1 µM, first compound 0.1 µM
[21] = second compound 1 µM, first compound 0.316 µM
[22] = second compound 1 µM, first compound 1 µM
[23] = second compound 1 µM, first compound 3.16 µM
[24] = second compound 1 µM, first compound 10 µM
[25] = second compound 3.16 µM, first compound 0.0316 µM
[26] = second compound 3.16 µM, first compound 0.1 µM
[27] = second compound 3.16 µM, first compound 0.316 µM
[28] = second compound 3.16 µM, first compound 1 µM
[29] = second compound 3.16 µM, first compound 3.16 µM
[30] = second compound 3.16 µM, first compound 10 µM
[31] = second compound 10 µM, first compound 0.0316 µM
[32] = second compound 10 µM, first compound 0.1 µM
[33] = second compound 10 µM, first compound 0.316 µM
[34] = second compound 10 µM, first compound 1 µM
[35] = second compound 10 µM, first compound 3.16 µM
[36] = second compound 10 µM, first compound 10 µM
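Note: spheroids exposed to compounds for one week before readout.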
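Throughout, for viability, T/C: percent viability relative to DMSO vehicle wells taken as 100%.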

C=CC(=O)N1CCN(c2nc(=O)n(-c3c(C)ccnc3C(C)C)c3nc(-c4c(O)cccc4F)c(F)cc23)C(C)C1 (centres undefined) + Cc1cccc(N(C)C(=O)C2C(O)CCN2c2nc(C)cc(C(F)(F)F)c2C#N)c1
IC50 (second compound 0.0316 µM): > 10 µM
IC50 (second compound 0.1 µM): > 10 µM
IC50 (second compound 0.316 µM): > 10 µM
IC50 (second compound 1 µM): > 10 µM
IC50 (second compound 3.16 µM): > 10 µM
IC50 (second compound 10 µM): > 10 µM
viability, T/C [1]: 102%
viability, T/C [2]: 95.3%
viability, T/C [3]: 95.8%
viability, T/C [4]: 109%
viability, T/C [5]: 100%
viability, T/C [6]: 98.3%
viability, T/C [7]: 95.6%
viability, T/C [8]: 95.3%
viability, T/C [9]: 88.2%
viability, T/C [10]: 105%
viability, T/C [11]: 104%
viability, T/C [12]: 90.3%
viability, T/C [13]: 93.8%
viability, T/C [14]: 99.2%
viability, T/C [15]: 99.6%
viability, T/C [16]: 104%
viability, T/C [17]: 108%
viability, T/C [18]: 97%
viability, T/C [19]: 96.7%
viability, T/C [20]: 86%
viability, T/C [21]: 88.1%
viability, T/C [22]: 101%
viability, T/C [23]: 105%
viability, T/C [24]: 86.2%
viability, T/C [25]: 96.6%
viability, T/C [26]: 122%
viability, T/C [27]: 103%
viability, T/C [28]: 101%
viability, T/C [29]: 97.6%
viability, T/C [30]: 91.6%
viability, T/C [31]: 105%
viability, T/C [32]: 99.6%
viability, T/C [33]: 90.9%
viability, T/C [34]: 104%
viability, T/C [35]: 95.3%
viability, T/C [36]: 73%

CC1COCCN1c1cc(C2(O)CC3CCC(C2)O3)c2cnn(-c3ccn[nH]3)c2n1 (centres undefined) + Cc1cccc(N(C)C(=O)C2C(O)CCN2c2nc(C)cc(C(F)(F)F)c2C#N)c1
IC50 (second compound 0.0316 µM): 3.91 µM
IC50 (second compound 0.1 µM): 2.95 µM
IC50 (second compound 0.316 µM): 2.75 µM
IC50 (second compound 1 µM): 3.78 µM
IC50 (second compound 3.16 µM): 4.3 µM
IC50 (second compound 10 µM): 1.4 µM
viability, T/C [1]: 98.1%
viability, T/C [2]: 102%
viability, T/C [3]: 76.6%
viability, T/C [4]: 65.3%
viability, T/C [5]: 56.2%
viability, T/C [6]: 38.9%
viability, T/C [7]: 101%
viability, T/C [8]: 99.1%
viability, T/C [9]: 76.2%
viability, T/C [10]: 71.7%
viability, T/C [11]: 46.5%
viability, T/C [12]: 33.6%
viability, T/C [13]: 106%
viability, T/C [14]: 103%
viability, T/C [15]: 74.9%
viability, T/C [16]: 61.4%
viability, T/C [17]: 53.5%
viability, T/C [18]: 33.6%
viability, T/C [19]: 105%
viability, T/C [20]: 94.7%
viability, T/C [21]: 74.2%
viability, T/C [22]: 70%
viability, T/C [23]: 57.9%
viability, T/C [24]: 33%
viability, T/C [25]: 106%
viability, T/C [26]: 92%
viability, T/C [27]: 71.1%
viability, T/C [28]: 71.8%
viability, T/C [29]: 58.1%
viability, T/C [30]: 36.6%
viability, T/C [31]: 105%
viability, T/C [32]: 94.6%
viability, T/C [33]: 68.8%
viability, T/C [34]: 53.4%
viability, T/C [35]: 44%
viability, T/C [36]: 30.8%
